Values quoted from earlier work in article PMC8416020 (eLife, 2021).
Where no end group is shown, it is not given here.

System: GHSR F272^6.44 to alanine mutant
Settings: mutating F272^6.44 to alanine; ref Valentin-Hansen et al., 2012; cited from earlier work
From the text: The fluorescent probe was introduced at different positions along GHSR sequence. […] The absence of major effect on substituting F272^6.44 with 7H4MC-ethylglycine on GHSR functioning was puzzling, as mutating this residue to an ala ...

Which “ghrelin binding affinity, F272^6.44 to alanine” value does the source give for “ghrelin: natural full agonist of GHSR, natural peptide agonist (GSSFLSPEHQRVQQRKESKKPPAKLQPR; not fully specified; ends and bridges not checked; UniProt Q9UBU3 24-51, looked up)” here?
The value was “without affecting ghrelin binding affinity”.
